How the values were obtained:
[1] = tested on: pCHK1 (S345) in Colo320 DM cells; assay: Alphalisa assay, detection of pCHK1 (S345) in Colo320 DM cells; format: cell-based, human; conditions: Homo sapiens, COLO 320DM, compound overnight (approximately 16 hours)
Method in brief: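 Colo320 DM cells plated overnight, then exposed to compound for about 16 h at 37 °C (DMSO <0.5%). Cells lysed and phospho-CHK1 (S345) quantified by AlphaLisa SureFire with sequential 60 min acceptor and donor incubations at room temperature.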

RNR (RNR1:RNR2 1:1) = target: T1, RNR (RNR1:RNR2 1:1) (Homo sapiens, UniProt P23921); assay: RNR enzyme activity, rapid-fire mass spectrometry (RF/MS) assay; format: biochemical; conditions: [RNR] 50 nM, 1:1 RNR1:RNR2; CDP 5 μM; ATP 1 mM; 37° C., 45 min; compounds screened up to 50 μM
T1 sequence (P23921 1-792): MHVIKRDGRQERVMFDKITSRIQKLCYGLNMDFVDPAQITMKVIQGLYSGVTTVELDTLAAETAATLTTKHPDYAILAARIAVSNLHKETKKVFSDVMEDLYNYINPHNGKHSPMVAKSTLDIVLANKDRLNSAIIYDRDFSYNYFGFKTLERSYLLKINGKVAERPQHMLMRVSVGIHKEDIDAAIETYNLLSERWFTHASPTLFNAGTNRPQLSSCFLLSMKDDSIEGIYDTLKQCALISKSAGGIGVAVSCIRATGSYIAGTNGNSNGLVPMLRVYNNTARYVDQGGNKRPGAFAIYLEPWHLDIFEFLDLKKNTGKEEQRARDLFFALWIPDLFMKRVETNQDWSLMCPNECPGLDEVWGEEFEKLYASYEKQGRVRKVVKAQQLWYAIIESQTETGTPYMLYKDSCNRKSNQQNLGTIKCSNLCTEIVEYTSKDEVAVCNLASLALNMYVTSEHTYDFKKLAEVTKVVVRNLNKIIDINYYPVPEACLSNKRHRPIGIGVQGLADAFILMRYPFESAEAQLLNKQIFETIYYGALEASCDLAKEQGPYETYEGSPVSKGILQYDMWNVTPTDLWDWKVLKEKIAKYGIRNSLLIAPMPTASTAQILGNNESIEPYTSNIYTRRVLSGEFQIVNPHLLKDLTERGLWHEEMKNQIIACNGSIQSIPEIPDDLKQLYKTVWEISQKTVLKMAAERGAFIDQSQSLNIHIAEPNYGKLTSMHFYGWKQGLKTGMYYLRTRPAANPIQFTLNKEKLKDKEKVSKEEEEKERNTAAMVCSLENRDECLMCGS
Method in brief: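 Human RNR (50 nM final, RNR1:RNR2 1:1) pre-incubated 15 min at room temperature, then reacted 45 min at 37 °C with 5 μM CDP and 1 mM ATP, no NADPH. Reaction quenched with 6% HCOOH; product quantified by rapid-fire mass spectrometry.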

SMILES | IC50 [1] | IC50 (RNR (RNR1:RNR2 1:1))
Cc1ccc(F)c([C@@H](C)[C@@H](c2n[nH]c(=O)o2)N2CN(CCN(C)C)c3cc(Cl)ccc3S2(=O)=O)c1C [Example 38, 5-((1S,2R)-1-(6-chloro-4-(2-(dimethylamino)ethyl)-1,1-dioxido-3,4-dihydro-2H-benzo[e][1,2,4]thiadiazin-2-yl)-2-(6-fluoro-2,3-dimethylphenyl)propyl)-1,3,4-oxadiazol-2 (3H)-one] | ≤ 1000 nM | < 20 nM
Cc1ccc(F)c([C@H](C)[C@@H](c2n[nH]c(=O)o2)N2CN(C)c3cc(Cl)cc(C(=O)N(C)C)c3S2(=O)=O)c1C [Example 39] | > 50000 nM | 10000 to 100000 nM
Cc1ccc(F)c(C(C)[C@@H](c2n[nH]c(=O)o2)N2CCOc3c(ccc(Cl)c3C(C)(C)O)S2(=O)=O)c1C (stereo partly drawn) [Example 40, 5-((1S)-1-(7-chloro-6-(2-hydroxypropan-2-yl)-1,1-dioxido-3,4-dihydro-2H-benzo[b][1,4,5]oxathiazepin-2-yl)-2-(6-fluoro-2,3-dimethylphenyl)propyl)-1,3,4-oxadiazol-2 (3H)-one] | 5000 to 10000 nM | < 20 nM
Cc1ccc(F)c([C@@H](C)[C@@H](c2n[nH]c(=O)o2)N2COc3cc(Cl)cc(C(=O)N(C)C)c3S2(=O)=O)c1C [Example 41, 6-chloro-2-((1S,2R)-2-(6-fluoro-2,3-dimethylphenyl)-1-(5-oxo-4,5-dihydro-1,3,4-oxadiazol-2-yl)propyl)-N,N-dimethyl-2,3-dihydrobenzo[e][1,4,3]oxathiazine-8-carboxamide 1,1-dioxide] | > 50000 nM | 100 to 1000 nM
Cc1ccc(F)c([C@@H](C)[C@@H](c2n[nH]c(=O)o2)N2CN(C3COC3)c3cc(Cl)ccc3S2(=O)=O)c1C [Example 42, 5-((1S,2R)-1-(6-chloro-4-(oxetan-3-yl)-1,1-dioxido-3,4-dihydro-2H-benzo[e][1,2,4]thiadiazin-2-yl)-2-(6-fluoro-2,3-dimethylphenyl)propyl)-1,3,4-oxadiazol-2 (3H)-one] | ≤ 1000 nM | < 20 nM
COCCN1CN([C@H](c2n[nH]c(=O)o2)[C@H](C)c2c(F)ccc(C)c2C)S(=O)(=O)c2ccc(Cl)cc21 [Example 45, 5-((1S,2R)-1-(6-chloro-4-(2-methoxyethyl)-1,1-dioxido-3,4-dihydro-2H-benzo[e][1,2,4]thiadiazin-2-yl)-2-(6-fluoro-2,3-dimethylphenyl)propyl)-1,3,4-oxadiazol-2 (3H)-one] | ≤ 1000 nM | < 20 nM
Cc1ccc(F)c([C@@H](C)[C@@H](c2n[nH]c(=O)o2)N2CN(C(=O)C3CC3)c3cc(Cl)ccc3S2(=O)=O)c1C [Example 46, 5-((1S,2R)-1-(6-chloro-4-(cyclopropanecarbonyl)-1,1-dioxido-3,4-dihydro-2H-benzo[e][1,2,4]thiadiazin-2-yl)-2-(6-fluoro-2,3-dimethylphenyl)propyl)-1,3,4-oxadiazol-2 (3H)-one] | ≤ 1000 nM | < 20 nM
Cc1ccc(F)c([C@@H](C)[C@@H](c2n[nH]c(=O)o2)N2CN(C3CCN(C)CC3)c3cc(Cl)ccc3S2(=O)=O)c1C [Example 47, 5-((1S,2R)-1-(6-chloro-4-(1-methylpiperidin-4-yl)-1,1-dioxido-3,4-dihydro-2H-benzo[e][1,2,4]thiadiazin-2-yl)-2-(6-fluoro-2,3-dimethylphenyl)propyl)-1,3,4-oxadiazol-2 (3H)-one] | 1000 to 5000 nM | < 20 nM
Cc1ccc(F)c([C@@H](C)[C@@H](c2n[nH]c(=O)o2)N2CN(CC3CCOC3)c3cc(Cl)ccc3S2(=O)=O)c1C (stereo partly drawn) [Example 49, 5-((1S,2R)-1-(6-chloro-1,1-dioxido-4-((tetrahydrofuran-3-yl)methyl)-3,4-dihydro-2H-benzo[e][1,2,4]thiadiazin-2-yl)-2-(6-fluoro-2,3-dimethylphenyl)propyl)-1,3,4-oxadiazol-2 (3H)-one] | ≤ 1000 nM | < 20 nM
Cc1ccc(F)c([C@@H](C)[C@@H](c2n[nH]c(=O)o2)N2CN(C3CCCN(C)C3)c3cc(Cl)ccc3S2(=O)=O)c1C (stereo partly drawn) [Example 51, 5-((1S,2R)-1-(6-chloro-4-(1-methylpiperidin-3-yl)-1,1-dioxido-3,4-dihydro-2H-benzo[e][1,2,4]thiadiazin-2-yl)-2-(6-fluoro-2,3-dimethylphenyl)propyl)-1,3,4-oxadiazol-2 (3H)-one] | ≤ 1000 nM | < 20 nM
Cc1ccc(F)c([C@@H](C)[C@@H](c2n[nH]c(=O)o2)N2CN(C[C@H]3CCCO3)c3cc(Cl)ccc3S2(=O)=O)c1C [Example 52, 5-((1S,2R)-1-(6-chloro-1,1-dioxido-4-(((R)-tetrahydrofuran-2-yl)methyl)-3,4-dihydro-2H-benzo[e][1,2,4]thiadiazin-2-yl)-2-(6-fluoro-2,3-dimethylphenyl)propyl)-1,3,4-oxadiazol-2 (3H)-one] | ≤ 1000 nM | < 20 nM
Cc1ccc(F)c([C@@H](C)[C@@H](c2n[nH]c(=O)o2)N2CCOc3c(ccc(Cl)c3CN(C)C)S2(=O)=O)c1C [Example 55, 5-((1S,2R)-1-(7-chloro-6-((dimethylamino)methyl)-1,1-dioxido-3,4-dihydro-2H-benzo[b][1,4,5]oxathiazepin-2-yl)-2-(6-fluoro-2,3-dimethylphenyl)propyl)-1,3,4-oxadiazol-2 (3H)-one] | 1000 to 5000 nM | < 20 nM
CC(=O)N1CN([C@H](c2n[nH]c(=O)o2)[C@H](C)c2c(F)ccc(C)c2C)S(=O)(=O)c2ccc(Cl)cc21 [Example 56, 5-((1S,2R)-1-(4-acetyl-6-chloro-1,1-dioxido-3,4-dihydro-2H-benzo[e][1,2,4]thiadiazin-2-yl)-2-(6-fluoro-2,3-dimethylphenyl)propyl)-1,3,4-oxadiazol-2 (3H)-one] | 1000 to 5000 nM | < 20 nM
Cc1ccc(F)c([C@@H](C)[C@@H](c2n[nH]c(=O)o2)N2CN(C3CNC3)c3cc(Cl)ccc3S2(=O)=O)c1C [Example 57, 5-((1S,2R)-1-(4-(azetidin-3-yl)-6-chloro-1,1-dioxido-3,4-dihydro-2H-benzo[e][1,2,4]thiadiazin-2-yl)-2-(6-fluoro-2,3-dimethylphenyl)propyl)-1,3,4-oxadiazol-2 (3H)-one] | 10000 to 50000 nM | 20 to 100 nM
Cc1ccc(F)c([C@@H](C)[C@@H](c2n[nH]c(=O)o2)N2CN([C@@H]3CCNC3)c3cc(Cl)ccc3S2(=O)=O)c1C [Example 58, 5-((1S,2R)-1-(6-chloro-1,1-dioxido-4-((R)-pyrrolidin-3-yl)-3,4-dihydro-2H-benzo[e][1,2,4]thiadiazin-2-yl)-2-(6-fluoro-2,3-dimethylphenyl)propyl)-1,3,4-oxadiazol-2 (3H)-one] | 10000 to 50000 nM | 20 to 100 nM
Cc1ccc(F)c([C@@H](C)[C@@H](c2n[nH]c(=O)o2)N2CN([C@H]3CCNC3)c3cc(Cl)ccc3S2(=O)=O)c1C [Example 59, 5-((1S,2R)-1-(6-chloro-1,1-dioxido-4-((S)-pyrrolidin-3-yl)-3,4-dihydro-2H-benzo[e][1,2,4]thiadiazin-2-yl)-2-(6-fluoro-2,3-dimethylphenyl)propyl)-1,3,4-oxadiazol-2 (3H)-one] | 5000 to 10000 nM | < 20 nM
Cc1ccc(F)c([C@@H](C)[C@@H](c2n[nH]c(=O)o2)N2CN(C)c3c(ccc(Cl)c3CN3CCCCC3)S2(=O)=O)c1C [Example 61, 5-((1S,2R)-1-(6-chloro-4-methyl-1,1-dioxido-5-(piperidin-1-ylmethyl)-3,4-dihydro-2H-benzo[e][1,2,4]thiadiazin-2-yl)-2-(6-fluoro-2,3-dimethylphenyl)propyl)-1,3,4-oxadiazol-2 (3H)-one] | 10000 to 50000 nM | 100 to 1000 nM
Cc1ccc(F)c([C@@H](C)[C@@H](c2n[nH]c(=O)o2)N2CN(C[C@@H]3CCCO3)c3cc(Cl)ccc3S2(=O)=O)c1C [Example 62, 5-((1S,2R)-1-(6-chloro-1,1-dioxido-4-(((S)-tetrahydrofuran-2-yl)methyl)-3,4-dihydro-2H-benzo[e][1,2,4]thiadiazin-2-yl)-2-(6-fluoro-2,3-dimethylphenyl)propyl)-1,3,4-oxadiazol-2 (3H)-one] | ≤ 1000 nM | < 20 nM
COCCN1CN([C@H](c2n[nH]c(=O)o2)[C@H](C)c2c(F)ccc(C)c2C)S(=O)(=O)c2ccc(Cl)nc21 [Example 63, 5-((1S,2R)-1-(6-chloro-4-(2-methoxyethyl)-1,1-dioxido-3,4-dihydro-2H-pyrido[2,3-e][1,2,4]thiadiazin-2-yl)-2-(6-fluoro-2,3-dimethylphenyl)propyl)-1,3,4-oxadiazol-2 (3H)-one] | ≤ 1000 nM | < 20 nM

— US20260085067A1, “CYCLIC SULFONAMIDE RIBONUCLEOTIDE REDUCTASE (RNR) INHIBITORS AND USES THEREOF” (Boundless Bio, Inc., priority 2022, published 2026)
